What all share (assay): relative viability (nuclei count vs DMSO), 5 days (fraction); higher = more cells survive
Compound in assay [1]: Cn1c(=O)n(-c2ccc(C(C)(C)C#N)cc2)c2c3cc(-c4cnc5ccccc5c4)ccc3ncc21 [Dactolisib] + Cc1nc(NC(=O)N2CCC[C@H]2C(N)=O)sc1-c1ccnc(C(C)(C)C(F)(F)F)c1 [Alpelisib] (partner 2 µM)
The method, boiled down: (§1)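 After 5 days of treatment, lung cancer cells in 1536-well plates were fixed and stained in a single step (final 0.05% Triton X-100, 1% formaldehyde, 1 ug/ml Hoechst) and their nuclei counted on 4× images. Treatment had been applied by pin tool the day after seeding as one drug alone or as a fixed anchor-drug dose with five library-drug doses (not always all listed) in √10 steps. Relative viability is the nuclei count of treated wells divided by that of vehicle wells, and values are medians of duplicate plates.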

Compound in assay [2]: C1CCC(CC1)N(CCNCCC2=C3C(=C(C=C2)O)NC(=O)CO3)C(=O)CCNCCC4=CC(=C(C=C4)Cl)Cl [AZ505] + C[C@@H](Oc1cc(-c2cnn(C3CCNCC3)c2)cnc1N)c1c(Cl)ccc(F)c1Cl [Crizotinib] (partner 1 µM)
The method, boiled down:
as §1

Compound in assay [3]: Cn1c(=O)n(-c2ccc(C(C)(C)C#N)cc2)c2c3cc(-c4cnc5ccccc5c4)ccc3ncc21 [Dactolisib] + O=C(CCCCCCC(=O)Nc1ccccc1)NO [Vorinostat] (partner 1 µM)
The method, boiled down: as §1

Compound in assay [4]: C1CCC(CC1)N(CCNCCC2=C3C(=C(C=C2)O)NC(=O)CO3)C(=O)CCNCCC4=CC(=C(C=C4)Cl)Cl [AZ505] + Nc1nc2[nH]cc(CCc3ccc(C(=O)N[C@@H](CCC(=O)O)C(=O)O)cc3)c2c(=O)[nH]1 [Pemetrexed] (partner 0.2 µM)
The method, boiled down:
as §1

For UMC-11, the relative viability in assay [1] (first compound 0.002 µM) is 0.961; in assay [1] (first compound 0.006325 µM), 0.852; in assay [1] (first compound 0.02 µM), 0.63; in assay [1] (first compound 0.06325 µM) it was 0.266; in assay [1] (first compound 0.2 µM), 0.243; in assay [2] (first compound 0.08 µM), 0.537. The relative viability is 0.588 in assay [2] (first compound 0.253 µM); 0.639 in assay [2] (first compound 0.8 µM); 0.709 in assay [2] (first compound 2.53 µM); 0.573 in assay [2] (first compound 8 µM); 0.407 in assay [3] (first compound 0.002 µM); 0.392 in assay [3] (first compound 0.006325 µM). Also, the relative viability in assay [3] (first compound 0.02 µM) is 0.245; in assay [3] (first compound 0.06325 µM), 0.235; in assay [3] (first compound 0.2 µM), 0.175; in assay [4] (first compound 0.08 µM), 0.757; in assay [4] (first compound 0.253 µM) it was 0.714; in assay [4] (first compound 0.8 µM) it was 0.705. Further, the results for the relative viability in assay [4] (first compound 2.53 µM) and in assay [4] (first compound 8 µM) were 0.901 and 0.894, respectively.

For the origin of these results see the supplement of paper PMC10307832.
